Test results taken from patent US10479795B2 (Incyte Corporation, priority 2016, dated 2019).
Structures can show the parent of a compound that is named as a salt. Where two headings read alike, the source gives them in different places.

Assays:
[1] = target: PI3Kδ (p110δ/p85α) Recombinant Human Protein (Homo sapiens (Human), UniProt O00329); test: PI3Kδ Scintillation Proximity Assay; format: biochemical
Summary of the method: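 IC50 was fitted to percent solvent-control activity from SPA scintillation counts after WGA bead capture of 33P-labelled lipid product. Reaction: 120 min, room temperature, 3.4 nM p110δ/p85α, 20 μM PIP2, 2 μM ATP with tracer, MOPS pH 6.7 buffer containing MgCl2, DTT, CHAPS, 2% DMSO.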

[2] = target: PI3Kγ (p110γ) Recombinant Human Protein (Homo sapiens (Human), UniProt P48736); test: PI3K-γ Scintillation Proximity Assay; format: biochemical; conditions: read-out: PI3Kγ IC50
Summary of the method: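 Radiometric SPA readout: […] bound to WGA beads after overnight shaking, IC50 derived from % activity of DMSO control. Reaction used human p110γ, 2 μM ATP, 20 μM PIP2, pH 6.7 MOPS buffer with MgCl2, DTT, CHAPS, 2% DMSO, room temperature.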

[3] = tested on: Phosphorylated Ribosomal Protein S6 (RPS6); test: THP-1 RPS6 ELISA Assay; format: cell-based, Human; conditions: THP-1 cells, read-out: PI3Kγ_THP1_RPS6_ELISA IC50
Description: To measure the Phosphorylated Ribosomal Protein S6 (RPS6) in cell lysates, THP-1 cells (Human Acute Monocytic Leukemia) are purchased from ATCC (Manassas, Va.) and maintained in RPMI with 10% FBS (Gibco/Life Technologies, Carlsbad, Calif.). For the assay, THP-1 cells are serum starved overnight in RPMI, then plated in RPMI (2×10^5 cells/well in 90 μL) into 96-well flat-bottom tissue culture treated plates (Corning, Corning, N.Y.), in the presence or absence of a concentration range of test compounds. Covered plates are incubated for 2 hours at 37° C., 5% CO2 then treated with or without 10 nM MCP-1 (MYBioSource, San Diego, Calif.) for 15 minutes at 37° C., 5% CO2. Plates are centrifuged at 1600 RPM and supernatants are removed. Cells are lysed in Lysis Buffer (Cell Signaling, Danvers, Mass.) with Protease Inhibitor (Calbiochem/EMD, Germany), PMSF (Sigma, St Louis Mo.), HALTS (Thermo Fisher, Rockford, Ill.) for 30 min on wet ice. Cell lysates are frozen at −80° C. before testing. The lysates are tested in the Human/Mouse/Rat Phospho-RPS6 ELISA (R&D Systems, Inc. Minn, Minn.). The plate is measured using a microplate reader (SpectraMax M5 —Molecular Devices, LLC Sunnyvale, Calif.) set to 450 nm with a wavelength correction of 540. IC50 determination is performed by fitting the curve of inhibitor percent inhibition versus the log of the inhibitor concentration using the GraphPad Prism 5.0 software.

Chain of PI3Kδ (p110δ/p85α) Recombinant Human Protein (O00329 whole entry): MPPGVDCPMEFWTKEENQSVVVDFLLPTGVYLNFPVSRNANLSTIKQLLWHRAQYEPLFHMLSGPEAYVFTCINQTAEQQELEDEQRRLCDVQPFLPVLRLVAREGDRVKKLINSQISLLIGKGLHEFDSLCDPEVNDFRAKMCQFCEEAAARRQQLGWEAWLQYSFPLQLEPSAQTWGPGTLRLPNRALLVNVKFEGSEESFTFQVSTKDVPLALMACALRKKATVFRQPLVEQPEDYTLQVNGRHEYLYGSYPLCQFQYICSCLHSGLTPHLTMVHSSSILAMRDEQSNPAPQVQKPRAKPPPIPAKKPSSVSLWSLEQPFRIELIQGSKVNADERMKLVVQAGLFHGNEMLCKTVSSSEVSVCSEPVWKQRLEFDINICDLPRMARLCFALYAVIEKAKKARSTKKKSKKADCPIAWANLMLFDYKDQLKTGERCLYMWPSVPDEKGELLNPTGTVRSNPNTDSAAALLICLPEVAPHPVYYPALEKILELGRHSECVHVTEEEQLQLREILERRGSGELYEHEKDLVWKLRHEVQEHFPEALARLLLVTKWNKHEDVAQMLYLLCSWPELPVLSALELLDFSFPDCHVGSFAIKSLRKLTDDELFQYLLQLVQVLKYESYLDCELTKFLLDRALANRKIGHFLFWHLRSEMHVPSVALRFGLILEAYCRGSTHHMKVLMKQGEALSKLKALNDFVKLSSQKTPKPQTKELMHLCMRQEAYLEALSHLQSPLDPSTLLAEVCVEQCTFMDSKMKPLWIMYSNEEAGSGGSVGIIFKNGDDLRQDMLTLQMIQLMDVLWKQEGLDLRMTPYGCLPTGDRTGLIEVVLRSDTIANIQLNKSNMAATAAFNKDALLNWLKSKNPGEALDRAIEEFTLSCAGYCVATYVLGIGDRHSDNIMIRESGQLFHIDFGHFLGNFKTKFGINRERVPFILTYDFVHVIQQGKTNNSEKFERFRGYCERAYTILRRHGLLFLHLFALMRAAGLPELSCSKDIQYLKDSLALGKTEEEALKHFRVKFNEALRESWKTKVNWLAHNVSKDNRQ
Chain of PI3Kδ (p110δ/p85α) Recombinant Human Protein (P27986 whole entry partner): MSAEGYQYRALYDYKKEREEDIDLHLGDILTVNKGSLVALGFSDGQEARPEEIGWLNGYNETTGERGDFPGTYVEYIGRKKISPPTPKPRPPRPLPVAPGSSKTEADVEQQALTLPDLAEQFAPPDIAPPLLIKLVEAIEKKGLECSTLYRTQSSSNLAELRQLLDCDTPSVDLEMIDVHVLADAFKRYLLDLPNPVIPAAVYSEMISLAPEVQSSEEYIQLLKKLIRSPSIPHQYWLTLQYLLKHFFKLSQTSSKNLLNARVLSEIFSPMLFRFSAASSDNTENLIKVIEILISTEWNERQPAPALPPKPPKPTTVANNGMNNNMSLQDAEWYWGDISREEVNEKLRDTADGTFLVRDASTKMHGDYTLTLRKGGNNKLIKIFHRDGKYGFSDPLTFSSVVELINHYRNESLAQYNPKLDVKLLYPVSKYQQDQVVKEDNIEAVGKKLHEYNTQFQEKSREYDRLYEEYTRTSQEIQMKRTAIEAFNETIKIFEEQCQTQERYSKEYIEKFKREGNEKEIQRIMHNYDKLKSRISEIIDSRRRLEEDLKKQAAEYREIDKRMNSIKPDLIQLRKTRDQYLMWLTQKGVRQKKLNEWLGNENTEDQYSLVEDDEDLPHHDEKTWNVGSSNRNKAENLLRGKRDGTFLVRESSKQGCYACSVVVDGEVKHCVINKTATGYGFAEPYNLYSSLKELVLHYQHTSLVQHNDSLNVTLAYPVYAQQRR
Chain of PI3Kγ (p110γ) Recombinant Human Protein (P48736 whole entry): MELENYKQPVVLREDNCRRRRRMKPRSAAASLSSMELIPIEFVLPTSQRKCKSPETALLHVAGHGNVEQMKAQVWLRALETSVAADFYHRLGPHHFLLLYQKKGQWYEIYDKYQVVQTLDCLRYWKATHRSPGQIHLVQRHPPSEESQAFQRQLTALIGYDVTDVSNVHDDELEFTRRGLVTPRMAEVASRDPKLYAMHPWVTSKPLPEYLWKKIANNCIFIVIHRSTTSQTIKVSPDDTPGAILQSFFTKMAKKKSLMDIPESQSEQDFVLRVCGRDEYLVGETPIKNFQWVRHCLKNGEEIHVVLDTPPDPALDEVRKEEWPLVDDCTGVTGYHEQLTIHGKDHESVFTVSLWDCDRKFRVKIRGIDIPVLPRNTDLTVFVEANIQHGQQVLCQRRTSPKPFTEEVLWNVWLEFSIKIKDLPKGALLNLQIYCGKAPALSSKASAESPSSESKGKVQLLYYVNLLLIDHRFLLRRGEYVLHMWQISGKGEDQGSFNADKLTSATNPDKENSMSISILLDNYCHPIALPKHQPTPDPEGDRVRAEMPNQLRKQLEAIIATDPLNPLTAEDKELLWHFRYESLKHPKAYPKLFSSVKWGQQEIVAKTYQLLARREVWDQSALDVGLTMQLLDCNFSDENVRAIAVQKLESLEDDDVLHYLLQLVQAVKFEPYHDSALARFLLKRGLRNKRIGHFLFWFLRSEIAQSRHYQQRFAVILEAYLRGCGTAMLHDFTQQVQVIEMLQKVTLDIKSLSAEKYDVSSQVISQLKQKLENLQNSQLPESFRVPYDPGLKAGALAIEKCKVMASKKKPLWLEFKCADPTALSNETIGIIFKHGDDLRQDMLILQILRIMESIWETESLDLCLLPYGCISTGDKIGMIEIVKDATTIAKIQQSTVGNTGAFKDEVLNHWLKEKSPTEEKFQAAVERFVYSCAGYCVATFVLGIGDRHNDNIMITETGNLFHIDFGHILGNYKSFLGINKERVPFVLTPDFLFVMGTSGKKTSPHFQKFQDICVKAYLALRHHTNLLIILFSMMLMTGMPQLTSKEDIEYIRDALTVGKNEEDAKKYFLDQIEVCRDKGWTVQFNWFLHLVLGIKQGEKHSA

IC50 [1] [µM] | IC50 [2] [µM] | IC50 ([3]; Homo sapiens) [µM] | Compound | IC50 [3] [µM]
0.1 to 0.5 | < 0.1 | 0.1 to 0.5 | Cc1ccc(S(=O)(=O)NC23COC(C)(C2)C3)cc1-c1cnc2c(N)ncnn12 [Example 424, 3-(4-Aminoimidazo[1,2-f][1,2,4]triazin-7-yl)-4-methyl-N-(1-methyl-2-oxabicyclo[2.1.1]hexan-4-yl)benzenesulfonamide trifluoroacetate salt] | –
0.1 to 0.5 | < 0.1 | 0.5 to 1 | Nc1nc(C(F)(F)F)cn2c(-c3ccc(F)c(S(=O)(=O)NC45CCC(CO)(C4)C5)c3)cnc12 [Example 398, 5-(8-Amino-6-(trifluoromethyl)imidazo[1,2-a]pyrazin-3-yl)-2-fluoro-N-(4-(hydroxymethyl)bicyclo[2.1.1]hexan-1-yl)benzenesulfonamide trifluoroacetate salt] | –
0.1 to 0.5 | < 0.1 | 0.1 to 0.5 | Cc1ccc(S(C)(=O)=O)cc1-c1cnc2c(N)nc(-c3cccc(CO)c3F)cn12 [Example 481, (3-(8-Amino-3-(2-methyl-5-(methylsulfonyl)phenyl)imidazo[1,2-a]pyrazin-6-yl)-2-fluorophenyl)methanol] | –
0.5 to 2 | < 0.1 | 0.5 to 1 | Cc1ccc(S(=O)(=O)NC23CCC(c4nccn4C)(CC2)OC3)cc1-c1cnc2c(N)ncnn12 [Example 439, 3-(4-Aminoimidazo[1,2-f][1,2,4]triazin-7-yl)-4-methyl-N-(1-(1-methyl-1H-imidazol-2-yl)-2-oxabicyclo[2.2.2]octan-4-yl)benzenesulfonamide trifluoroacetate salt] | –
< 0.1 | < 0.1 | < 0.1 | Cc1ccc(S(=O)(=O)N[C@H]2CC[C@H](O)CC2)cc1-c1cnc2c(N)nc(-c3ccccc3)cn12 [Example 23, 3-[8-Amino-6-phenylimidazo[1,2-a]pyrazin-3-yl]-N-(trans-4-hydroxycyclohexyl)-4-methylbenzenesulfonamide] | –
> 2 | < 0.1 | > 1 | Cc1ccc(S(=O)(=O)N[C@H]2CC[C@H](NC(=O)OC(C)(C)C)CC2)cc1-c1cnc2c(N)nccn12 [Example 55, tert-Butyl [trans-4-({[3-(8-aminoimidazo[1,2-a]pyrazin-3-yl)-4-methylphenyl]sulfonyl}amino)cyclohexyl]carbamate] | –
> 2 | < 0.1 | > 1 | Cc1ccc(S(=O)(=O)NC2CC2)cc1-c1cnc2c(N)ncnn12 [Example 64, 3-(4-Aminoimidazo[2,1-f][1,2,4]triazin-7-yl)-N-cyclopropyl-4-methylbenzenesulfonamide] | –
0.1 to 0.5 | < 0.1 | – | Cc1c(F)cc(S(=O)(=O)NC23CCC(CO)(CC2)OC3)cc1-c1cnc2c(N)ncnn12 [Example 375, 3-(4-aminoimidazo[1,2-f][1,2,4]triazin-7-yl)-5-fluoro-N-(1-(hydroxymethyl)-2-oxabicyclo[2.2.2]octan-4-yl)-4-methylbenzenesulfonamide trifluoroacetate salt] | < 0.1
< 0.1 | < 0.1 | 0.1 to 0.5 | Cc1nc(N)c2ncc(-c3cc(S(=O)(=O)NC45CCC(O)(CC4)C5)ccc3C)n2n1 [Example 443, 3-(4-Amino-2-methylimidazo[1,2-f][1,2,4]triazin-7-yl)-N-(4-hydroxybicyclo[2.2.1]heptan-1-yl)-4-methylbenzenesulfonamide trifluoroacetate salt] | –
0.1 to 0.5 | < 0.1 | 0.5 to 1 | Cc1ccc(S(=O)(=O)NC23CCC(C(N)=O)(C2)C3)cc1-c1cnc2c(N)nc(C(F)(F)F)cn12 [Example 291, 4-(3-(8-Amino-6-(trifluoromethyl)imidazo[1,2-a]pyrazin-3-yl)-4-methylphenylsulfonamido)bicyclo[2.1.1]hexane-1-carboxamide trifluoroacetate salt] | –
< 0.1 | < 0.1 | – | Cc1ccc(S(=O)(=O)N[C@H]2CC[C@@H](C#N)C2)cc1-c1cnc2c(N)nc(C(F)(F)F)nn12 (single isomer, unassigned) [Example 321] | < 0.1
0.5 to 2 | 0.1 to 0.5 | – | Cc1ccc(S(=O)(=O)N(C)C2CC2)cc1-c1cnc2c(N)ncnn12 [Example 148, 3-(4-aminoimidazo[2,1-f][1,2,4]triazin-7-yl)-N-cyclopropyl-N,4-dimethylbenzenesulfonamide] | –
0.5 to 2 | < 0.1 | – | Cc1ccc(S(=O)(=O)N2CC3(CC(O)C3)C2)cc1-c1cnc2c(N)nc(C(F)(F)F)cn12 [Example 297, 2-((3-(8-amino-6-(trifluoromethyl)imidazo[1,2-a]pyrazin-3-yl)-4-methylphenyl)sulfonyl)-2-azaspiro[3.3]heptan-6-ol] | –
0.1 to 0.5 | < 0.1 | – | Cc1ccc(S(C)(=O)=O)cc1-c1cnc2c(N)nc(-c3ccccc3F)cn12 [Example 40, 6-(2-Fluorophenyl)-3-[2-methyl-5-(methylsulfonyl)phenyl]imidazo[1,2-a]pyrazin-8-amine trifluoroacetate] | –
0.5 to 2 | 0.1 to 0.5 | – | COC(=O)N1CCCC(NC(=O)c2cn3c(-c4cc(S(C)(=O)=O)ccc4C)cnc3c(N)n2)C1 (stereo not shown) [Example 461, Methyl 3-(8-amino-3-(2-methyl-5-(methylsulfonyl)phenyl)imidazo[1,2-a]pyrazine-6-carboxamido)piperidine-1-carboxylate trifluoroacetate salt] | –
0.1 to 0.5 | < 0.1 | – | CO[C@@H]1CN(S(=O)(=O)c2ccc(C)c(-c3cnc4c(N)ncnn34)c2)C[C@H]1F [Example 151, 7-(5-(((3R,4R)-3-fluoro-4-methoxypyrrolidin-1-yl)sulfonyl)-2-methylphenyl)imidazo[2,1-f][1,2,4]triazin-4-amine] | –
> 2 | 0.1 to 0.5 | – | Cc1ccc(S(C)(=O)=O)cc1-c1cnc2c(N)nc(C(=O)NC3CCCN(CC#N)C3)cn12 (stereo not shown) [Example 459, 8-Amino-N-(1-(cyanomethyl)piperidin-3-yl)-3-(2-methyl-5-(methylsulfonyl)phenyl)imidazo[1,2-a]pyrazine-6-carboxamide trifluoroacetate salt] | –
0.5 to 2 | 0.1 to 0.5 | – | CCOc1ncc(-c2cnc3c(N)cc(Cl)cn23)cc1NS(=O)(=O)CC [Example 7, N-[5-(8-Amino-6-chloroimidazo[1,2-a]pyridin-3-yl)-2-ethoxypyridin-3-yl]ethanesulfonamide bis(trifluoroacetate)] | –
> 2 | 0.5 to 2 | – | Cc1ccc(S(C)(=O)=O)cc1-c1cnc2c(N)nc(C(=O)NC3CCCN(CCO)C3)cn12 (racemic) [Example 460, 8-Amino-N-(1-(2-hydroxyethyl)piperidin-3-yl)-3-(2-methyl-5-(methylsulfonyl)phenyl)imidazo[1,2-a]pyrazine-6-carboxamide trifluoroacetate salt (racemic)] | –
0.5 to 2 | 0.1 to 0.5 | – | Cc1ccc(S(C)(=O)=O)cc1-c1cnc2c(N)nc(C(=O)Nc3cc(-c4ccco4)[nH]n3)cn12 [Example 454, 8-amino-N-(5-(furan-2-yl)-1H-pyrazol-3-yl)-3-(2-methyl-5-(methylsulfonyl)phenyl)imidazo[1,2-a]pyrazine-6-carboxamide trifluoroacetate salt] | –
0.5 to 2 | < 0.1 | – | Cc1ccc(S(=O)(=O)N2CCC[C@H]2C(C)(C)O)cc1-c1cnc2c(N)ncnn12 [Example 213, (S)-2-(1-((3-(4-Aminoimidazo[2,1-f][1,2,4]triazin-7-yl)-4-methylphenyl)sulfonyl)pyrroldiin-2-yl)propan-2-ol] | –

Compound | IC50 [1] [µM] | IC50 [2] [µM] | IC50 ([3]; Homo sapiens) [µM] | IC50 [3] [µM]
Nc1ncnn2c(-c3ccc(Cl)c(S(=O)(=O)NC45CCC(CO)(C4)C5)c3)cnc12 [Example 367, 5-(4-Aminoimidazo[1,2-f][1,2,4]triazin-7-yl)-2-chloro-N-(4-(hydroxymethyl)bicyclo[2.1.1]hexan-1-yl)benzenesulfonamide trifluoroacetate salt] | 0.1 to 0.5 | < 0.1 | – | > 1
5-(4-Amino-2-(trifluoromethyl)imidazo[1,2- f][1,2,4]triazin-7-yl)-2-chloro-N-(4- (hydroxymethyl)bicyclo[1.1.1]hexan-1- yl)benzenesulfonamide [Example 419] | – | < 0.1 | – | > 1
